Consider eleven compounds from paper PMC5744064, “Regulation of Class A β-Lactamase CzoA by CzoR and IscR in Comamonas testosteroni S44” (Frontiers in Microbiology, 2017).

Converted amounts (≈) assume the structure as drawn.

Broadly, the MIC is the lowest concentration that inhibits growth of the organism. A low value points to a more susceptible organism.

The test has as its system T1, C. testosteroni S44.
T1 construct: S44
Kind of test: organism not typed. Further details: species or system Comamonas testosteroni S44; Broth dilution MIC in Mueller-Hinton broth, bacterial growth inhibition (CLSI). The following applies: wild-type S44, MH broth. The procedure: Minimal inhibitory concentration profiles of the recombinant E. coli DH5α ([Miller and Mekalanos, 1988]) expressing czoA (pCT-Zori::czoA) and the isogenic strains of C. testosteroni S44 (S44, ΔczoR, ΔczoR-C, ΔiscR, and ΔiscR-C) were determined by the broth dilution method ([Clinical and Laboratory Standards Institute, 2014]) using 11 β-lactams. For the recombinant E. coli DH5α, two β-lactamase inhibitors, clavulanic acid, and tazobactam were also tested. E. coli DH5α (pCT-Zori) was used as a control. Clavulanic acid and tazobactam were generally fixed at a concentration of 2 and 4 μg/ml, respectively ([Girlich et al., 2007]; [Naas et al., 2007]; [Lamoureaux et al., 2013]; [Clinical and Laboratory Standards Institute, 2014]). Moreover, growth tendency of the isogenic strains of S44 under stress of 11 β-lactams with concentration below MIC was evaluated through OD600 values. Isogenic strains of C. testosteroni S44 in exponential growth phase were inoculated with each of 11 β-lactams in MH medium at 37°C and OD600 values were determined using a spectrophotometer after growth for 24 h. Bacterial strains, plasmids, and [compound left out] primers used in this study are shown in Supplementary Table S1. All strains were grown at 37°C in Luria-Bertani (LB, Oxoid, United Kingdom) broth unless otherwise stated. Mueller-Hinton (MH, Beijing Land Bridge Technology, China) broth dilution was used to determine the minimal inhibitory concentration (MIC) of antibiotics. Antibiotic disk (Hangzhou Microbial Reagent, China) diffusion tests were used for the antibiotic susceptibility assay (cephalexin and cefazolin). […] Then, the seed [compound left out] was used directly in relevant experiments.
`CC1(C)S[C@@H]2[C@H](NC(=O)[C@H](N)c3ccccc3)C(=O)N2[C@H]1C(=O)O` [Ampicillin]: the MIC is over 2050 µg/mL.

`CC1(C)S[C@@H]2[C@H](NC(=O)Cc3ccccc3)C(=O)N2[C@H]1C(=O)O` [Benzylpenicillin] gave an MIC of over 2050 µg/mL.

As to `CC1=C(C(=O)O)N2C(=O)[C@@H](NC(=O)[C@H](N)c3ccccc3)[C@H]2SC1` [Cefalexin], the MIC was over 1020 µg/mL.

`Cc1nnc(SCC2=C(C(=O)O)N3C(=O)[C@@H](NC(=O)Cn4cnnn4)[C@H]3SC2)s1` [Cefazolin] showed an MIC of over 2050 µg/mL.

Regarding `CO/N=C(\C(=O)N[C@@H]1C(=O)N2C(C(=O)[O-])=C(C[N+]3(C)CCCC3)CS[C@H]12)c1csc(N)n1` [Cefepime], the MIC was over 512 µg/mL.

Compound `CO[C@@]1(NC(=O)Cc2cccs2)C(=O)N2C(C(=O)O)=C(COC(N)=O)CS[C@@H]21` [Cefoxitin] gave an MIC of 128 µg/mL (≈ 299 µM).

In turn, `CC(C)(O/N=C(\C(=O)N[C@@H]1C(=O)N2C(C(=O)[O-])=C(C[n+]3ccccc3)CS[C@H]12)c1csc(N)n1)C(=O)O` [Ceftazidime] showed an MIC of 128 µg/mL (≈ 234 µM).

The compound `CO/N=C(\C(=O)N[C@@H]1C(=O)N2C(C(=O)O)=C(CSc3nc(=O)c(=O)[nH]n3C)CS[C@H]12)c1csc(N)n1` [Ceftriaxone] returned an MIC of over 1020 µg/mL.

`CO/N=C(\C(=O)N[C@@H]1C(=O)N2C(C(=O)O)=C(COC(N)=O)CS[C@H]12)c1ccco1` [Cefuroxime] had a minimum inhibitory concentration (MIC) of over 128 µg/mL.

The compound `C[C@@H](O)[C@H]1C(=O)N2C(C(=O)O)=C(SCCNC=N)C[C@H]12` [Imipenem] yielded an MIC of 8 µg/mL (≈ 26.7 µM).

As for `C[C@@H](O)[C@H]1C(=O)N2C(C(=O)O)=C(S[C@@H]3CN[C@H](C(=O)N(C)C)C3)[C@H](C)[C@H]12` [Meropenem], the MIC worked out at 1 µg/mL (≈ 2.61 µM).
